Assays:
occludin = assay: Immunofluorescence staining of Occludin in colon tissue, 4 weeks; assay type: in vivo, mice; conditions: group ES: 2.0% v/v ethanol diet + 2.5 mg sesaminol per day oral, group E significant decrease
Procedure: (§1) Next, in order to verify the longer-term effect of oral administration of sesaminol on ethanol-induced intestinal tight junction (TJ) dysfunction and leaky gut, histological analysis of colonic epithelial TJ proteins (ZO-1, Occludin, and Claudin-1) and analysis of the plasma LPS level were performed using the mice in each group (groups C, S, E, and ES) described in Example 7. Histological analysis was performed by immunofluorescence staining with anti-ZO-1, anti-Occludin, and anti-Claudin-1 antibodies, followed by observation under a fluorescence microscope. The Plasma LPS level was measured according to the method described in Example 6.

[1] = Body weight and percentage of liver weight relative to body weight, 4 weeks; assay type: in vivo, mice; conditions: mean ±SD
From the text: The liver function and plasma lipid level in the mice in each group were examined by measuring the percentage of the liver weight relative to the body weight, the triglyceride (TG) concentration in the liver, the aspartate aminotransferase (AST) activity in the plasma, the alanine aminotransferase (ALT) activity in the plasma, and the TG concentration in the plasma of the mice in each group.
The body weight of mice fed for 4 weeks were weighed and dissected under anesthesia. The liver was removed and weighed. The weight ratio between the body weight and the liver of each individual was evaluated.

HO-1 = assay: Western blotting of HO-1 in colon tissue; assay type: in vivo, mice; conditions: group ES: 2.0% v/v ethanol diet + 2.5 mg sesaminol per day oral, 2 weeks; group E significantly lower than group C
From the text: Chronic consumption of an excessive amount of ethanol has been reported to increase CYP2E1 and iNOS levels and cause ethanol-induced oxidative stress in the liver and other tissues. The nuclear factor erythroid 2-related factor 2/heme oxygenase-1 (Nrf2/HO-1) system has also been reported to be widely involved in the protection of cells from oxidative damage. Therefore, the expression levels of these proteins (CYP2E1, iNOS, and HO-1) in mouse colon tissue in the four groups (groups C, S, E, and ES) were examined by western blotting (WB).
A colon tissue sample (100 mg) was homogenized in 1 mL of an M-PER mammalian protein extraction reagent (Pierce) containing a diluent of a protease inhibitor cocktail (Nacalai Tesque, Inc.), and the resulting homogenate was centrifuged at 20,000× g at 4° C. for 15 minutes. The protein concentration of the supernatant was measured with a protein assay reagent (Bio-Rad Laboratories, Inc.), and equal amounts of proteins were subjected to SDS-PAGE. Electrophoresed proteins in the gel were transferred to a PVDF membrane, and the membrane was immersed in a blocking reagent (room temperature, overnight). The primary antibody (rabbit polyclonal antibody) was then reacted. […] The band intensities were quantified with ImageJ.

8-OHdG = 8-OHdG level in colon tissue (immunohistochemical staining, ELISA); assay type: in vivo, mice; conditions: group ES: 2.0% v/v ethanol diet + 2.5 mg sesaminol per day oral, 2 weeks, group E highest
From the text: The present inventors have previously reported that chronic oral administration of ethanol to mice increases oxidative stress in colon tissue (NPL 13). Therefore, in order to verify the effect of oral administration of sesaminol on oxidative stress in the colon induced by chronic oral consumption of ethanol, the levels of oxidative stress markers (8-hydroxy-2′-deoxyguanosine (8-OHdG), malondialdehyde (MDA), and 4-hydroxyalkenals (HAE)) were examined in colon tissue of the mice in groups C, S, E, and ES.
The level of 8-OHdG, which is an oxidative stress marker in tissue, was examined by immunohistochemical staining and ELISA.
Immunostained tissue specimens were prepared in the same manner as the method described above, except that the primary antibody was rabbit anti-8-OHdG monocolonal antibody.
A colon tissue sample (50 mg) was homogenized in 1 mL of DNAzol reagent, and the resulting homogenate was centrifuged at 20,000× g at 4° C. for […]. DNA was then isolated from the supernatant by ethanol precipitation and treated with an 8-OHdG assay preparation reagent set (FUJIFILM Wako Pure Chemical
Corporation). Equal amounts of the extracted DNA were used for analysis of the 8-OHdG level using an OxiSelect oxidative DNA damage ELISA kit (Cell Biolabs, Inc.).

[2] = Amount of short-chain fatty acids in mouse feces (GC-FID); assay type: in vivo, mice; conditions: 4 weeks
Procedure: Short-chain fatty acids are metabolites of intestinal bacteria. The amounts of short-chain fatty acids (acetic acid, propionic acid, and butyric acid) in feces of the mice in each group (groups C, E, S, and ES) were measured.
The amounts of short-chain fatty acids in the mouse feces were measured by outsourcing to TechnoSuruga Laboratory Co., Ltd.
Immediately after collection, mouse feces was treated with liquid nitrogen and stored at −80° C. While the fecal samples were frozen, an amount of 100 mg was crushed with beads and formed into a powder, and components extracted with ethyl acetate treatment were used as detection samples. For the measurement, a gas-chromatography-flame ionization detector system (Agilent 7890B GC, produced by Agilent technologies) was used, and the concentration of each short-chain fatty acid was calculated by comparison with the amount of standard substance.

claudin-1 = assay: Immunofluorescence staining of Claudin-1 in colon tissue, 4 weeks; assay type: in vivo, mice; conditions: group ES: 2.0% v/v ethanol diet + 2.5 mg sesaminol per day oral, group E significant decrease
Procedure: as §1

fecal mucin = assay: Amount of fecal mucin of mice; assay type: in vivo; conditions: group ES: 2.0% v/v ethanol diet + 2.5 mg sesaminol per day oral, 4 weeks, vs group E; level similar to group C
From the text: The effect of oral administration of sesaminol on the amount of mucus secretion in mouse colon was examined by measuring the amount of fecal mucin of the mice in each group (groups C, E, S, and ES) and the amount of secretory immunoglobulin A (sIgA) in the colon tissue of the mice.
Fecal samples were each freeze-dried overnight in a freeze-drying equipment and then formed into a powder. After weighing each of the dried, powdered feces, fecal mucin was quantified according to the product protocol of a reagent kit for measuring fecal mucin (Fecal Mucin Assay Kit, produced by Cosmo Bio Co., Ltd.), and converted to the mucin amount (ug) per amount of dry feces (g). The results were evaluated.

[3] = EtOH (2.0% v/v) + Sesaminol group ES
[4] = group ES: 2.0% v/v ethanol diet + 2.5 mg sesaminol per day oral

Oc1cc2c(cc1C1OCC3C(c4ccc5c(c4)OCO5)OCC13)OCO2 (stereo not shown) [Sesaminol]
protein level of Occludin in colon tissue (fluorescence microscope observation) (occludin): improvement in all of those levels | Body weight [1, 3]: 25.4 ± 1.0 g | Liver/body weight ratio [1, 3]: 4.04 ± 0.41 g/g, % | Body weight ([1]; Sesaminol (2.5 mg/d) group S): 25.9 ± 0.8 g | Liver/body weight ratio ([1]; Sesaminol (2.5 mg/d) group S): 3.96 ± 0.55 g/g, % | HO-1 expression level (HO-1): recovery of the expression level | 8-OHdG level in colon tissue (8-OHdG): next highest level | acetic acid in the feces [2, 4]: significant increase | propionic acid in the feces [2, 4]: significant increase | amount of butyric acid in the feces ([2]; group ES: 2.0% v/v ethanol diet + 2.5 mg sesaminol per day oral, group E significant decrease): increase in the amount of butyric acid to the same level as that in group C | amount of short-chain fatty acids (acetic acid, propionic acid, butyric acid) in the feces ([2]; group S: 2.5 mg sesaminol per day oral, no ethanol, vs all other groups): significant increase in the amount of short-chain fatty acids in the feces compared with all the other groups | protein level of Claudin-1 in colon tissue (fluorescence microscope observation) (claudin-1): improvement in all of those levels | amount of fecal mucin (fecal mucin): significantly higher than that in group E
